How the values were obtained:
[1] = target: recombinant human GST-PKR (Homo sapiens (Human), UniProt P19525); assay: PKR KinaseGlo Assay; type: biochemical; conditions: 6.6 uM ATP; read-out: PKR KINASEGLO Enzyme Assay IC50
Procedure: Commercially available recombinant human GST-PKR (SignalChem, Canada; 1.5 uM-2 uM stock) is diluted to 500 nM in assay buffer (20 mM Tris-HCl, pH 7.2, 10 mM KCl, 10 mM MgCl2, 10% glycerol). Preactivated PKR is dispensed to 384/96-well black plates at 3.125/12.5 uls/well using the liquid handler Janus. Appropriate dilutions of inhibitors are added to 384/96-well plate followed by 6.6 uM ATP (final) and incubated for 10 minutes at room temperature. The remaining ATP/well is determined by adding 6.25/25 uls/well Kinase-Glo assay mix (Promega) and luminescence is measured on EnVision luminescence plate reader (integration time, 0.2 sec; Perkin-Elmer, Massachusetts, USA). […] IC50 values are determined by plotting % activity versus inhibitor concentration. Curves are fitted using Activity base XLfit (IDBS, UK) using the formula— 4 Parameter Logistic Model fit=(A+((B−A)/(1+(10^((C−x)*D))))) inv=(C−(log(((B−A)/(y−A))−1)/D)) res=(y−fit)

[2] = target: PDGFRβ (cytoplasmic domain PDGFR-b protein) (Homo sapiens (Human), UniProt P09619); assay: PDGFRβ Kinase Assay (biochemical, ELISA); conditions: 36 μM ATP; read-out: PDGFRβ Enzyme Assay (IC50 nM)
PDGFRβ (cytoplasmic domain PDGFR-b protein), sequence (P09619 554-1106): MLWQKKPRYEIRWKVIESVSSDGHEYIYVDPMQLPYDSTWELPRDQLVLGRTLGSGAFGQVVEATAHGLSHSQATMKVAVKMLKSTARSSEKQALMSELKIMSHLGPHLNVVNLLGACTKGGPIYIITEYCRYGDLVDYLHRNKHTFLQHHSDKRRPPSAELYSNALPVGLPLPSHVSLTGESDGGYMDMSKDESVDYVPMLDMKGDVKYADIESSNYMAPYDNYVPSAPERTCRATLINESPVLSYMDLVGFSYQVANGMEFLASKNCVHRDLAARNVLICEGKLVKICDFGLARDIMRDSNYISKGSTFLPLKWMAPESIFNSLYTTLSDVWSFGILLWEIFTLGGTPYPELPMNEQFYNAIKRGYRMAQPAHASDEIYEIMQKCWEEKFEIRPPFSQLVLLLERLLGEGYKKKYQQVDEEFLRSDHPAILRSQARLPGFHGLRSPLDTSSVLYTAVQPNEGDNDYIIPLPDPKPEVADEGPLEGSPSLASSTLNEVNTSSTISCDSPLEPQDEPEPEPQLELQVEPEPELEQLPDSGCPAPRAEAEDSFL

VEGFR2 = VEGFR2 (Homo sapiens (Human), UniProt P35968); assay: VEGFR2 Cellular Assay (FLIPR, VEGF induced intracellular calcium in HUVEC)
VEGFR2, sequence (P35968 20-1356): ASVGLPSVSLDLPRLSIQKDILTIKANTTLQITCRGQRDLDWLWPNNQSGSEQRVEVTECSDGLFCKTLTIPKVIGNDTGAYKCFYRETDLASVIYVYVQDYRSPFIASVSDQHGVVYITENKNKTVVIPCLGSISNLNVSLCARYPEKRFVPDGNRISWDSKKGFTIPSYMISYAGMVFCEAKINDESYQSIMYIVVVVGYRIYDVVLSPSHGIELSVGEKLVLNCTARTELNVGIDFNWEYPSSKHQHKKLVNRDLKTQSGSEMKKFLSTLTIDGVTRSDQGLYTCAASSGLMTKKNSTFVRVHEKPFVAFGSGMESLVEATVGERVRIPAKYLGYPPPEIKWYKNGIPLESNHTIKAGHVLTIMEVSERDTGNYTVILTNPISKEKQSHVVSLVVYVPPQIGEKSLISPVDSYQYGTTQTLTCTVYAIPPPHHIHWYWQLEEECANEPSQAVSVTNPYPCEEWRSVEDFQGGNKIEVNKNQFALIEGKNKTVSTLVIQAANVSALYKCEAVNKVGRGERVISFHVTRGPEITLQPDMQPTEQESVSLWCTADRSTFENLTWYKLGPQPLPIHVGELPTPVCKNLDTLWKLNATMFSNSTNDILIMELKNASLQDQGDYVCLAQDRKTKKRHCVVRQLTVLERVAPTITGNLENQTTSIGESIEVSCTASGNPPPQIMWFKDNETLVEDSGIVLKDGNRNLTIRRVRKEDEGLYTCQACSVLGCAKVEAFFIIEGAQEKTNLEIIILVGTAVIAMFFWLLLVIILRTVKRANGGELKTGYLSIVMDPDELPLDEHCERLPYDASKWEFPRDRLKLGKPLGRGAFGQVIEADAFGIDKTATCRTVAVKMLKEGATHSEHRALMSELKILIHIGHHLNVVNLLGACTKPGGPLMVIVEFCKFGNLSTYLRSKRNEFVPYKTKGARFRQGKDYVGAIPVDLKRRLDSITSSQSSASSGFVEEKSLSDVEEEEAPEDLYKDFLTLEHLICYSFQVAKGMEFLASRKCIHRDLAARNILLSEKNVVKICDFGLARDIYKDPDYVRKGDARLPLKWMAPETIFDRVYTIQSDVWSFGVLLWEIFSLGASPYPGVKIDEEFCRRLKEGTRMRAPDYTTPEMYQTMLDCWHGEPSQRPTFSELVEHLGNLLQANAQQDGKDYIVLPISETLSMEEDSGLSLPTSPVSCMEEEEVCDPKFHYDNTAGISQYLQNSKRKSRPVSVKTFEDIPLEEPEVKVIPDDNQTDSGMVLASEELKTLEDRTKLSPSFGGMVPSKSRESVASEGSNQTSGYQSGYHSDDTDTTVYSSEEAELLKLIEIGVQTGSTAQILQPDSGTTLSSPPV

[3] = target: VEGFR2 (cytoplasmic domain KDR protein) (Homo sapiens (Human), UniProt P35968); assay: VEGFR2 Kinase Assay (biochemical KDR kinase assay, ELISA); conditions: read-out: VEGFR2 Enzyme Assay (IC50 nM); 2.7 μM ATP
VEGFR2 (cytoplasmic domain KDR protein), sequence (P35968 786-1356): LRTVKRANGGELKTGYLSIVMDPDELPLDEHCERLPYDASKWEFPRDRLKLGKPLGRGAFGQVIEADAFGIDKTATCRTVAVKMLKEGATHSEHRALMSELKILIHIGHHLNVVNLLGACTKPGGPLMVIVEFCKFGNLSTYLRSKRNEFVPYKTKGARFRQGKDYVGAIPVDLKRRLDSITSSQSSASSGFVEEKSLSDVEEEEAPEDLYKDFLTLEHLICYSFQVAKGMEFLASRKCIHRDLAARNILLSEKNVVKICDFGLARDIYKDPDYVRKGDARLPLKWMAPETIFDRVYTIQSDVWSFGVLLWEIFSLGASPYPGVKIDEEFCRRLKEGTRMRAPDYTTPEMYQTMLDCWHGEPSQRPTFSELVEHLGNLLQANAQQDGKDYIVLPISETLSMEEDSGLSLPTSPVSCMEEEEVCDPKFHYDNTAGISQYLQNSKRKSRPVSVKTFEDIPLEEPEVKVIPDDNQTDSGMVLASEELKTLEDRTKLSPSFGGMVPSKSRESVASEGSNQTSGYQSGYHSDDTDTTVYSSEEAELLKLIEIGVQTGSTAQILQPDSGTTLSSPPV

PDGFRβ = PDGFRβ (Homo sapiens (Human), UniProt P09619); assay: PDGFRβ Cellular Assay (FLIPR, PDGF-induced intracellular calcium in NHDF-Ad)
PDGFRβ, sequence (P09619 33-1106): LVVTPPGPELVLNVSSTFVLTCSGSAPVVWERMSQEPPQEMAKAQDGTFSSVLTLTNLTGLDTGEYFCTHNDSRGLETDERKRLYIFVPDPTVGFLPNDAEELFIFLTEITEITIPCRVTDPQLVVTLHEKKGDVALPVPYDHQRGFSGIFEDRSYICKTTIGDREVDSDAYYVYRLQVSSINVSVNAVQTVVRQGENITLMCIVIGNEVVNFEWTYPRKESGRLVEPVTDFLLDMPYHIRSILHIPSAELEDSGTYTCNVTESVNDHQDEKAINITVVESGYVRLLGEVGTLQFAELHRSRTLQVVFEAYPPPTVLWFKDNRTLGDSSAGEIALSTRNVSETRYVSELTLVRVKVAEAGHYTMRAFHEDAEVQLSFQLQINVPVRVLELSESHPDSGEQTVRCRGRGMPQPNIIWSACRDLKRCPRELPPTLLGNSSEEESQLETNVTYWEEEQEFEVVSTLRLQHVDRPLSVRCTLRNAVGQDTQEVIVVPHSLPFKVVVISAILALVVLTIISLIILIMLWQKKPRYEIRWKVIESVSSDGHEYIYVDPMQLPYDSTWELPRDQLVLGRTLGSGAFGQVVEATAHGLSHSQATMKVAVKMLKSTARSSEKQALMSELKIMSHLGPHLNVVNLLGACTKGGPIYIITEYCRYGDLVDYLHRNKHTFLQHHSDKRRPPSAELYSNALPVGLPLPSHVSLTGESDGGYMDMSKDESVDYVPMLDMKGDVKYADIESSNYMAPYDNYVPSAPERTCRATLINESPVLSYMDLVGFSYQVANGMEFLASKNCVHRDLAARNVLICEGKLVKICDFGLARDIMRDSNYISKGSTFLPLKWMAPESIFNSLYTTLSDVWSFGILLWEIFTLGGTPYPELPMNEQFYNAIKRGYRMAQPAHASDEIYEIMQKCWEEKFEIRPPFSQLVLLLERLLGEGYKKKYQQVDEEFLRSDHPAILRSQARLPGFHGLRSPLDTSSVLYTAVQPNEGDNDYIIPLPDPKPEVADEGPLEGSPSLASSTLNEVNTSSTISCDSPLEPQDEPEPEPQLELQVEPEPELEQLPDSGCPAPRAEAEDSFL

recombinant human GST-PKR, sequence (P19525 whole entry): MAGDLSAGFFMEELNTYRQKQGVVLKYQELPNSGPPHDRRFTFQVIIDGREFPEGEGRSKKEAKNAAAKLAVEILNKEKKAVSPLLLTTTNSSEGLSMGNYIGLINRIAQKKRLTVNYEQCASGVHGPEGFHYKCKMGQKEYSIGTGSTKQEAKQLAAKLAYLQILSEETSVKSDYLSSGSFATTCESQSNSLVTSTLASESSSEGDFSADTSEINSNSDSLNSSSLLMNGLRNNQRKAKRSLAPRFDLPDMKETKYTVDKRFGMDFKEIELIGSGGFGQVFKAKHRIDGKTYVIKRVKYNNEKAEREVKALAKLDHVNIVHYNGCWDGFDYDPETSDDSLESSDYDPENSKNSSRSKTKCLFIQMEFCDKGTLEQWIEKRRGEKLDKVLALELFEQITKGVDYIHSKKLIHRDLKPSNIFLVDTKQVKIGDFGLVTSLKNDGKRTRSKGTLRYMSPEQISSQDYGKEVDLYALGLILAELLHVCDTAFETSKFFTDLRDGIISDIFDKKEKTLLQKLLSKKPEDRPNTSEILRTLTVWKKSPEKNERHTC

| IC50 [1] [nM] | IC50 [2] [nM] | IC50 (VEGFR2) [nM] | IC50 [3] [nM] | SMILES | IC50 (PDGFRβ) [nM] |
| --- | --- | --- | --- | --- | --- |
| 69 | 21 | 11 | 6 | CS(C)(=O)=NC(=O)c1cnc(N)c(-c2cc3cc(NC(=O)Nc4ccc(Cl)c(C(F)(F)F)c4)ccc3s2)c1 [Example 5, 6-amino-5-{5-[({[4-chloro-3-(trifluoromethyl)phenyl]amino}carbonyl)amino]-1-benzothien-2-yl}-N-[dimethyl(oxido)-λ^4-sulfanylidene]nicotinamide] | – |
| 167 | 27 | 5 | 6 | CS(C)(=O)=NC(=O)c1cnc(N)c(-c2cc3cc(NC(=O)Nc4cc(C(F)(F)F)ccc4F)ccc3s2)c1 [Example 6, 6-amino-N-[dimethyl(oxido)-λ^4-sulfanylidene]-5-{5-[({[2-fluoro-5-(trifluoromethyl)phenyl]amino}carbonyl)amino]-1-benzothien-2-yl}nicotinamide] | – |
| 551 | – | – | 7 | CS(C)(=O)=NC(=O)c1cncc(-c2cc3cc(NC(=O)Nc4cc(C(F)(F)F)ccc4F)ccc3s2)c1 [Example 57, N-[dimethyl(oxido)-λ^4-sulfanylidene]-5-{5-[({[2-fluoro-5-(trifluoromethyl)phenyl]amino}carbonyl)amino]-1-benzothien-2-yl}nicotinamide] | – |
| 390 | – | – | 14 | CS(C)(=O)=NC(=O)c1cncc(-c2cc3cc(NC(=O)Nc4ccc(Cl)c(C(F)(F)F)c4)ccc3s2)c1 [Example 58, 5-{5-[({[4-chloro-3-(trifluoromethyl)phenyl]amino}carbonyl)amino]-1-benzothien-2-yl}-N-[dimethyl(oxido)-Δ^4-sulfanylidene]nicotinamide] | – |
| – | – | – | – | COP(=O)(OC)c1cnc(N)c(-c2ccc(NC(=O)Nc3cccc(C(F)(F)F)c3)cc2)c1 [Example 64, dimethyl (6-amino-5-(4-(3-(3-(trifluoromethyl)phenyl)ureido)phenyl)pyridin-3-yl)phosphonate] | 66 |

Reference: patent publication US9868726B2, “Pyridyl benzothiophenes as kinase inhibitors” (Allergan, Inc., priority 2014, dated 2018)
